PMC9653258, “NDUFS3 knockout cancer cells and molecular docking reveal specificity and mode of action of anti-cancer respiratory complex I inhibitors” (Open Biology, 2022)
Where two headings read alike, the source gives them in different places. One block for each compound: values may come before it.

Legend:
[1] = tested on: B16-F10^−/− cells (NDUFS3 knockout); assay: Proliferation of CI-deficient cells, Incucyte; type: cell-based, murine
Excerpt: (§1) Human ovarian cancer cell line SKOV3 and murine melanoma cell line B16-F10 were purchased from ATCC (#HTB-77; #CRL-6475, Manassas, VA, USA). Human colorectal cancer cell line HCT116 was authenticated using […]dentifiler kit (Applied Biosystem #4322288) and its STR profile corresponded to the putative background. Mitochondrial DNA (mtDNA) was sequenced by Sanger sequencing as previously described, to ensure wild-type genotype. The results are available upon request. NDUFS3 knockout cells, referred as SKOV3^−/−, HCT116^−/− and B16-F10^−/−, were generated by genome editing as previously reported. Briefly, CRISPR/Cas9 system was used to introduce a frameshift mutation in NDUFS3 gene in SKOV3 human cell line and Ndufs3 gene in B16-F10 murine cell line, using exon 2 targeting guide […] and exon 3 targeting guide […], respectively. […]
(§2) Cell proliferation and morphology were assessed using the Incucyte Live-imaging System (Sartorius) and proliferation was quantified through time-lapse image acquisition and metrics application.
(§3) Briefly, 2.5 × 10^3 SKOV3/well, 2 × 10^3 HCT116/well and 1 × 10^3 B16-F10/well were seeded in 96-well plates in high-glucose DMEM and incubated overnight to allow cells attachment. […] Cell growth was evaluated by Incucyte system phase contrast software (confluence metrics), which provides an occupied area average (% of confluence) per image/per well. […]

[2] = tested on: mitochondrial respiration of B16-F10 cells; assay: Microrespirometry (Seahorse XFe, oxygen consumption rate); type: cell-based, murine; details: for IC50: Mus musculus
Method: (§4) Mitochondrial respiration was measured using the protocol described for the Seahorse XFe Cell Mito Stress Test Kit (Agilent #103015-100) following the manufacturer instructions. Briefly, 12 × 10^3 cells/well (SKOV3, HCT116) and 8 × 10^3 (B16-F10) were seeded in 80 µl of DMEM medium into XFe96 cell culture plates and incubated for 48 h (HCT116) and for 24 h (SKOV3, B16-F10) at 37°C and 5% CO2. Complete growth medium was replaced with 180 µl of XF medium (Agilent #103575-100) supplemented with 10 mM glucose, 1 mM sodium pyruvate, 2 mM L-glutamine, at pH 7.4. For temperature and pH equilibration, cells were incubated at 37°C for 30 min. Three oxygen consumption rate (OCR) baseline measurements were followed by injection of either vehicle or different concentrations of CI-inhibitors and subsequent measurements; 1 µM oligomycin, carbonyl cyanide-p-trifluoromethoxyphenylhydrazone (FCCP), 1 µM rotenone and 1 µM antimycin A were sequentially added to each well. FCCP concentrations were previously optimized by titration and were 0.5 µM for SKOV3, 0.75 µM for HCT116 and 1 µM for B16-F10, respectively. At the end of the assay, medium was removed and sulforhodamine B (SRB) assay was performed to determine protein content for normalization. Briefly, plates were incubated with 10% trichloroacetic acid (TCA) for 1 h at 4°C to fix the cells. Five washes in water were carried out. Once the plates were dry, proteins were stained by incubation with 0.4% SRB for 30 min at RT. SRB was solubilized with 10 mM Tris and absorbance at 560 nm was determined using a Victor2 plate reader (Perkin-Elmer). Data (pmol min^−1) were normalized to blank corrected SRB absorbance.

SKOV3 cells (NDUFS3^+/+) = assay: Cell proliferation, Incucyte live-imaging (confluence); type: cell-based, human
Method: as §2
(§5) Briefly, 2.5 × 10^3 SKOV3/well, 2 × 10^3 HCT116/well and 1 × 10^3 B16-F10/well were seeded in 96-well plates in high-glucose DMEM and incubated overnight to allow cells attachment. For specificity assays, NDUFS3 wild-type and knockout cells were seeded simultaneously, and the same confluence mask was applied for subsequent analysis. […] Cell growth was evaluated by Incucyte system phase contrast software (confluence metrics), which provides an occupied area average (% of confluence) per image/per well. For data in electronic supplementary material, figures S1 and S2, the analysis was performed using % of confluence metric per scan normalized on treatment starting point (time 0). For data in figures 1 and 2, the percentage of cell confluence normalized on time 0 for each inhibitor's treatment was subsequently normalized to untreated control. At least three replicate experiments were performed for each treatment condition.

[3] = tested on: HCT116 cells (NDUFS3^+/+); assay: as above; type: cell-based, human
Method: as §2, §5

[4] = tested on: mitochondrial respiration of SKOV3, HCT116 and B16-F10 cells; assay: Microrespirometry (Seahorse XFe, OCR), stated across cell models; type: cell-based, human, murine
Method: as §4

[5] = tested on: B16-F10 cells (NDUFS3^+/+); assay: Cell proliferation, Incucyte live-imaging (confluence); type: cell-based, murine
Method: as §2, §5

[6] = tested on: mitochondrial respiration of SKOV3 cells; assay: Microrespirometry (Seahorse XFe, oxygen consumption rate); type: cell-based, human; details: for IC50: Homo sapiens, read-out: IC50 (residual OCR, concentration-response)
Method: as §4

[7] = tested on: mitochondrial respiration of HCT116 cells; assay: as above; type: cell-based, human; details: for IC50: Homo sapiens, read-out: IC50 (residual OCR, concentration-response)
Method: as §4

[8] = tested on: HCT116^−/− cells (NDUFS3 knockout); assay: Proliferation of CI-deficient cells, Incucyte; type: cell-based, human
Excerpt: (§6) Human ovarian cancer cell line SKOV3 and murine melanoma cell line B16-F10 were purchased from ATCC (#HTB-77; #CRL-6475, Manassas, VA, USA). Human colorectal cancer cell line HCT116 was authenticated using […]dentifiler kit (Applied Biosystem #4322288) and its STR profile corresponded to the putative background. Mitochondrial DNA (mtDNA) was sequenced by Sanger sequencing as previously described, to ensure wild-type genotype. The results are available upon request. NDUFS3 knockout cells, referred as SKOV3^−/−, HCT116^−/− and B16-F10^−/−, were generated by genome editing as previously reported. Briefly, CRISPR/Cas9 system was used to introduce a frameshift mutation in NDUFS3 gene in SKOV3 human cell line and Ndufs3 gene in B16-F10 murine cell line, using exon 2 targeting guide […] and exon 3 targeting guide […], respectively. Instead, zinc finger endonuclease system was used to obtain HCT116 NDUFS3 knockout. Plasmids containing cDNA of NDUFS3-targeted zinc finger endonucleases (Sigma-Aldrich #CKOZFND15186) were purified and transcribed in vitro. The pool of zinc finger endonucleases mRNAs was transfected into 70% confluent HCT116 cells. The resulting heterozygous clones were subjected to a subsequent second transfection with NDUFS3 zinc finger pool and led to the selection of homozygous frameshift NDUFS3 mutants.
as §2, §5

[9] = tested on: SKOV3^−/− cells (NDUFS3 knockout); assay: Proliferation of CI-deficient cells, Incucyte; type: cell-based, human
Excerpt: as §6, §2, §5

SKOV3 cells = assay: Apoptotic cell death, Incucyte Caspase-3/7 green dye; type: cell-based, human; details: 72 h
Method: (§7) Cells (SKOV3, HCT116 and B16-F10) were seeded in a 96-wells plate in high glucose DMEM, as described above. Drugs were added after 24 h, in presence of 5 µM Incucyte Caspase-3/7 green dye following the manufacturer's protocol. Then, the plate was placed in Incucyte for 72 h and images (4/well) were captured at 10× magnification with 2 h intervals, both in phase contrast and fluorescent green channel. For each cell line, staurosporine (100 nM, Sigma-Aldrich #S4400) treatment was performed as a positive control. For each experimental condition, the masks for fluorescent objects identification were set by the Incucyte integrated analysis software. Total and green positive cells were counted at 10× magnification in three fields of view per condition, and data are expressed as percentage of apoptotic cells [(number of green cells/number of total cells) × 100].

HCT116 cells = assay: as above; type: cell-based, human; details: 72 h
Method: as §7

[10] = tested on: CI (respiratory complex I) in permeabilized SKOV3, HCT116 and B16-F10 cells; assay: Mitochondrial ATP synthesis rate, CI-driven, digitonin-permeabilized cells (luciferin/luciferase); type: cell-based, human, murine; details: optimized concentrations; all the investigated cell models
Method: The rate of mitochondrial ATP synthesis was measured in digitonin-permeabilized CI competent cells by using a luciferin/luciferase assay as previously described with minor modifications [47]. Chemiluminescence was determined as a function of time with a luminometer (Sirius L Tube, Titertek-Berthold, Pforzheim, Germany). After trypsinization, cells (10 × 10^6 ml^−1) were suspended in a buffer containing 150 mM KCl, 25 mM Tris–HCl, 2 mM EDTA (ethylenediaminetetraacetic acid), 0.1% bovine serum albumin, 10 mM potassium phosphate, 0.1 mM MgCl2, pH 7.4, kept at room temperature for 15 min, then incubated with 50 µg ml^−1 digitonin until 90–100% of cells were positive to Trypan Blue staining. Aliquots of 3 × 10^5 permeabilized cells were incubated in the same buffer in the presence of the adenylate kinase inhibitor P1,P5-di(adenosine-5′) pentaphosphate (0.1 mM, Sigma-Aldrich #A2754) and 10 µl of the luciferin/luciferase assay reagent (Sigma-Aldrich #FLAAM-5VL). Then, ATP synthesis rate was determined after the sequential addition of the following substrates and inhibitors. […] Then, CI inhibitors were added at the optimized concentrations that completely suppress maximal respiration previously determined by titration with Seahorse. […]

[11] = tested on: NDUFS3^+/+ and NDUFS3^−/− SKOV3, HCT116 and B16-F10 cells; assay: Specificity assay: proliferation of NDUFS3^+/+ versus NDUFS3^−/− cells, Incucyte; type: cell-based, human, murine; details: EVP 4593 100 nM (SKOV3, HCT116), 200 nM (B16-F10); BAY 87-2243 1 µM, 20 µM (B16-F10); IACS-010759 1 µM, 5 µM (B16-F10); 72 h
Method: as §2, §5

[12] = tested on: SKOV3, HCT116 and B16-F10 cells; assay: Apoptotic cell death, Incucyte Caspase-3/7 green dye (all cell models); type: cell-based, human, murine; details: 72 h
Method: as §7

[13] = tested on: NDUFS3^−/− cells (SKOV3^−/−, HCT116^−/−, B16-F10^−/−); assay: Proliferation of CI-deficient cells, Incucyte (all three models); type: cell-based, human, murine; details: tested concentrations (up to 1 µM)
Excerpt: as §1, §2, §3

[14] = metformin, dose-dependent over the tested concentrations
[15] = B16-F10, figure 4a, read-out: IC50 (residual OCR, concentration-response)
[16] = range over SKOV3, HCT116, B16-F10, read-out: IC50 of mitochondrial respiration (range over cell lines)
[17] = 1 µM (highest concentration applied)

SMILES: CN(C)C(=N)NC(=N)N.Cl [metformin, 1,1-dimethylbiguanide hydrochloride]
- concentrations at which NDUFS3^−/− cell proliferation was reduced (CI-independent antiproliferative effect) ([1]; metformin, B16-F10^−/−, only at high concentrations): 10 to 20 mM
- IC50 ([2]; B16-F10, pre-incubated 24 h before OCR measurement, figure 4a, read-out: IC50 (residual OCR, concentration-response)): 1340 µM
- concentration abolishing basal OCR ([2]; pre-incubation for 24 h, B16-F10): 10 mM
- reduction of cell growth after 72 h (SKOV3 cells (NDUFS3^+/+); [14]): 58–90%
- reduction of cell growth after 72 h [3, 14]: 46–77%
- decrease of basal respiration (OCR) ([4]; acute injection, only at the highest concentration (50 mM), independently from the cell model): 25–35%
- concentration abolishing maximal respiration ([4]; cells pre-incubated (24 h)): 50 mM
- IC50 ([4]; range over SKOV3, HCT116, B16-F10, 24 h pre-incubation, read-out: IC50 of mitochondrial respiration (range over cell lines)): 225 to 1340 µM
- reduction of cell growth after 72 h [5, 14]: 24–62%
- IC50 ([6]; SK-OV-3, pre-incubated 24 h before OCR measurement, figure 4a): 554 µM
- concentration abolishing basal OCR ([6]; pre-incubation for 24 h): 2 mM
- IC50 ([7]; HCT-116, pre-incubated 24 h before OCR measurement, figure 4a): 225 µM
- concentration abolishing basal OCR ([7]; pre-incubation for 24 h): 2 mM
- concentrations at which NDUFS3^−/− cell growth was reduced (CI-independent antiproliferative effect) ([8]; metformin, HCT116^−/−): all the tested concentrations
- concentrations at which NDUFS3^−/− cell growth was reduced (CI-independent antiproliferative effect) ([9]; metformin, SKOV3^−/−): all the tested concentrations
- apoptotic cell death (portion of the cells) (SKOV3 cells; 2.5 mM): 2.8%
- apoptotic cell death (HCT116 cells; 2.5 mM): comparable to the untreated control

SMILES: Nc1ccc2ncnc(NCCc3ccc(Oc4ccccc4)cc3)c2c1 [EVP 4593, N4-[2-(4-phenoxyphenyl)ethyl]-4,6-quinazolinediamine]
- effect on CI-driven ATP synthesis [10]: strongly inhibit
- concentration causing reduction of NDUFS3^−/− cell growth ([1]; B16-F10 NDUFS3^−/−): 20 µM
- effect on cell proliferation at optimized concentrations, NDUFS3^+/+ versus CI-defective counterparts [11]: reduced cell proliferation of NDUFS3^+/+ cells only
- lowest concentration able to fully curb mitochondrial respiration ([2]; B16-F10): 200 nM
- IC50 [2, 15]: 0.0299 µM
- decrease in cell proliferation after 72 h (SKOV3 cells (NDUFS3^+/+); 2.5–20 µM): 49–62%
- decrease in cell proliferation after 72 h ([3]; 2.5–20 µM): 52–74%
- concentration range completely suppressing mitochondrial respiration ([4]; in our models (SKOV3, HCT116, B16-F10)): 100 to 200 nM
- IC50 [4, 16]: 0.011 to 0.03 µM
- decrease in cell proliferation after 72 h ([5]; 2.5–20 µM): 66–84%
- lowest concentration able to fully curb mitochondrial respiration [6]: 100 nM
- IC50 ([6]; SK-OV-3, figure 4a): 0.0111 µM
- lowest concentration able to fully curb mitochondrial respiration [7]: 100 nM
- IC50 ([7]; HCT-116, figure 4a): 0.013 µM
- concentration causing reduction of NDUFS3^−/− cell growth ([8]; HCT116 NDUFS3^−/−): 10 to 20 µM
- concentration causing reduction of NDUFS3^−/− cell growth ([9]; SKOV3 NDUFS3^−/−): 20 µM
- apoptotic cell death (SKOV3 cells; 20 µM): 24.6%
- apoptotic cell death ([12]; 2.5 µM): modest percentage of dead cells
- massive apoptotic cell death ([12]; optimized concentration (100 nM SKOV3 and HCT116, 200 nM B16-F10)): not detected
- apoptotic cell death (HCT116 cells; 20 µM): 77.6%

- IC50 [2, 15]: 7.04 µM
- IC50 ([2]; murine B16-F10 cells, read-out: IC50 (mitochondrial respiration)): 7 µM
- IC50 ([4]; human models (SKOV3, HCT116), read-out: IC50 (mitochondrial respiration)): 0.115 to 0.171 µM
- IC50 [4, 16]: 0.12 to 7 µM
- IC50 ([6]; SK-OV-3, figure 4a): 0.115 µM
- IC50 ([7]; HCT-116, figure 4a): 0.172 µM
SMILES: Cc1cc(-c2nc(-c3ccc(OC(F)(F)F)cc3)no2)nn1Cc1ccnc(N2CCN(C3CC3)CC2)c1 [BAY 87-2243, 1-cyclopropyl-4-(4-[(5-methyl-3-{3-[4-(trifluoromethoxy)phenyl]-1,2,4-oxadiazol-5-yl)-1H-pyrazol-1-yl)methyl]pyridin-2-yl) piperazine]
- effect on CI-deficient cancer cell growth [13]: unaffected
- effect on CI-driven ATP synthesis [10]: strongly inhibit
- effect on cell proliferation at optimized concentrations, NDUFS3^+/+ versus CI-defective counterparts [11]: reduced cell proliferation of NDUFS3^+/+ cells only
- concentration required to suppress maximal OCR (abolished OCR) ([2]; B16-F10): 20 µM
- fold less efficient in murine B16-F10 cells compared to human models ([2]; ratio of IC50, B16-F10 versus human models): 50 fold
- reduction of cell growth after 72 h treatment (SKOV3 cells (NDUFS3^+/+); [17]): 38%
- reduction of cell growth after 72 h treatment [3, 17]: 20%
- reduction of cell growth after 72 h treatment [5, 17]: 28%
- lowest concentration that completely inhibited mitochondrial respiration (abolished OCR) [6]: 1 µM
- lowest concentration that completely inhibited mitochondrial respiration (abolished OCR) [7]: 1 µM
- apoptosis (percentage of cells) ([12]; tested BAY 87-2243 concentrations): very low percentage of cells

SMILES: Cc1nc(-c2nc(-c3ccc(OC(F)(F)F)cc3)no2)nn1Cc1cccc(N2CCC(S(C)(=O)=O)CC2)c1 [IACS-010759]
- effect on cell proliferation at optimized concentrations, NDUFS3^+/+ versus CI-defective counterparts [11]: reduced cell proliferation of NDUFS3^+/+ cells only
- concentration required to suppress maximal OCR (abolished OCR) ([2]; B16-F10): 5 µM
- lowest concentration that completely inhibited mitochondrial respiration (abolished OCR) [6]: 1 µM
- lowest concentration that completely inhibited mitochondrial respiration (abolished OCR) [7]: 1 µM
